Experimental data taken from paper PMC5458078, “Global mapping of CARM1 substrates defines enzyme specificity and substrate recognition” (Nature Communications, 2017).
Like-named read-outs stand apart in the source and are kept apart here.

Experiments:
MCF7 CARM1 KO cells = assay: Quantitative MS of ADMA-containing peptides in MCF7 CARM1 KO cells expressing CARM1 28-608 or CARM1 140-608, and in CARM1 KO; assay type: cell-based, human
MCF7 cells = assay: Quantitative nanoLC-MS/MS (TMT) of ADMA-containing peptides, CARM1 KO vs parental; assay type: cell-based, human; design: Fold change KO/WT: scale not given here
[1] = ratio on log2 scale, mean of 3 replicates
[2] = MCF7, CARM1 KO vs WT, three biological replicates each
[3] = CARM1 140-608 vs WT, mean of 3 replicates, log2
[4] = KO vs WT, mean of 3 replicates, log2
[5] = difference of log2 means, CARM1 140-608 vs WT
[6] = difference of log2 means, KO vs WT
[7] = ADMA-containing peptide, CARM1 knockout (KO) vs wild type (WT) MCF7 cells, 6-plex TMT experiment #1, three biological replicates each, sheet "MCF7"
[8] = MCF7, CARM1 knockout vs wild type, n = 3 each
[9] = MCF7 CARM1 knockout vs wild type, 3 biological replicates each, values are on log2 scale
[10] = mean, CARM1 140-608 versus WT (log2 scale)
[11] = mean, CARM1 KO versus WT (log2 scale)
[12] = CARM1 140-608 versus WT, difference of mean log2 values
[13] = CARM1 KO versus WT, difference of mean log2 values
[14] = CARM1 KO vs wild type MCF7 cells, 3 biological replicates each
[15] = log2 scale ratio, mean of n = 3
[16] = ADMA-containing peptide, MCF7, CARM1 knockout (KO1-3) vs wild type (WT1-3), TMT 6-plex experiment #1

## FArVPLALHPVVGQPFLK
MCF7 CARM1 KO cells; [1]
  CARM1 140-608/WT: -2.105
  KO/WT: -2.764
MCF7 cells; [2]
  Fold change KO/WT: -2.764

## VLGIIPSSTGTSQQTFTSFQPrTATVTIrPNTSGSGGTTSNSQVITGPQIrPGMTVIrTPLQQSTLGK
MCF7 CARM1 KO cells; [3]
  CARM1 140-608/WT: -2.572
MCF7 CARM1 KO cells; [4]
  KO/WT: -6.437
MCF7 cells; [2]
  Fold change KO/WT: -6.437

## TSVYrQQQPAVPQGQrLrQQLQAK
MCF7 CARM1 KO cells; [5]
  CARM1 140-608/WT: -3.863
MCF7 CARM1 KO cells; [6]
  KO/WT: -4.228
MCF7 cells; [7]
  Fold change KO/WT: -4.048

## RPAQSVNrGGMTR
MCF7 CARM1 KO cells; [3]
  CARM1 140-608/WT: 0.0581
MCF7 CARM1 KO cells; [4]
  KO/WT: 0.3659
MCF7 cells; [2]
  Fold change KO/WT: 0.2083

## LrQQLQAK
MCF7 CARM1 KO cells; [5]
  CARM1 140-608/WT: -1.5575
MCF7 CARM1 KO cells; [6]
  KO/WT: -2.723
MCF7 cells; [7]
  Fold change KO/WT: -3.626

## LHrSPLTFPAWVrPPEAAR
MCF7 CARM1 KO cells; [1]
  CARM1 140-608/WT: -1.436
  KO/WT: -1.489
MCF7 cells; [8]
  Fold change KO/WT: -1.489

## QrLPFSAPPGSVVEASSNLR
MCF7 CARM1 KO cells; [5]
  CARM1 140-608/WT: -0.4663
MCF7 CARM1 KO cells; [6]
  KO/WT: -1.419
MCF7 cells; [9]
  Fold change KO/WT: -1.459

## HSAYSYCGrGFYPQYGALETrGGFNPR
MCF7 CARM1 KO cells; [10]
  CARM1 140-608/WT: -0.5986
MCF7 CARM1 KO cells; [11]
  KO/WT: -0.0486
MCF7 cells; [9]
  Fold change KO/WT: -0.3157

## QPQPAQNVLAAPrLR
MCF7 CARM1 KO cells; CARM1 140-608 versus WT, mean of three replicates (log2)
  CARM1 140-608/WT: -0.6318
MCF7 CARM1 KO cells; KO versus WT, mean of three replicates (log2)
  KO/WT: -1.672
MCF7 cells; [7]
  Fold change KO/WT: -1.672

## CDPVPAANGAIrFHCDPTFWAK
MCF7 CARM1 KO cells; [12]
  CARM1 140-608/WT: -1.543
MCF7 CARM1 KO cells; [13]
  KO/WT: -1.494
MCF7 cells; [14]
  Fold change KO/WT: -1.494

## VrINLQQQPPPLQIK
MCF7 CARM1 KO cells; [15]
  CARM1 140-608/WT: -1.463
  KO/WT: -4.329
MCF7 cells; [16]
  Fold change KO/WT: -3.801

## AGGAASGGGGNSWDLPGSHVrLPGR
MCF7 CARM1 KO cells; CARM1 140-608 vs WT, mean of 3 replicates (log2 scale)
  CARM1 140-608/WT: -0.7799
MCF7 CARM1 KO cells; KO vs WT, mean of 3 replicates (log2 scale)
  KO/WT: -0.9676
MCF7 cells; MCF7, CARM1 KO (KO1-KO3) vs wild type (WT1-WT3)
  Fold change KO/WT: -0.8314

## KPLGTAPHCPrLPLR
MCF7 CARM1 KO cells; [10]
  CARM1 140-608/WT: -2.281
MCF7 CARM1 KO cells; [11]
  KO/WT: -3.016
MCF7 cells; [8]
  Fold change KO/WT: -3.016

## SGSNWGrGSNMNSGPPR
MCF7 CARM1 KO cells; [12]
  CARM1 140-608/WT: 0.2533
MCF7 CARM1 KO cells; [13]
  KO/WT: 0.9633
MCF7 cells; [14]
  Fold change KO/WT: 0.3426

## AYGQQYWGQPGNrGGYrNFYDR
MCF7 CARM1 KO cells; [10]
  CARM1 140-608/WT: -0.223
MCF7 CARM1 KO cells; [11]
  KO/WT: 0.1923
MCF7 cells; [9]
  Fold change KO/WT: 0.1386

## GASQAGMTGYGMPrQIL
MCF7 CARM1 KO cells; [15]
  CARM1 140-608/WT: -2.236
  KO/WT: -2.889
MCF7 cells; [16]
  Fold change KO/WT: -2.889

## FrPNPLNNPR
MCF7 CARM1 KO cells; [15]
  CARM1 140-608/WT: 0.04278
  KO/WT: 0.4697
MCF7 cells; [16]
  Fold change KO/WT: 0.07251

## ELSHPPLYrLPLLENAETPQ
MCF7 CARM1 KO cells; [15]
  CARM1 140-608/WT: -1.659
  KO/WT: -3.498
MCF7 cells; [16]
  Fold change KO/WT: -3.498

## APVFPGrGSYSNrGNYNR
MCF7 CARM1 KO cells; [10]
  CARM1 140-608/WT: 0.3143
MCF7 CARM1 KO cells; [11]
  KO/WT: -0.1859
MCF7 cells; [9]
  Fold change KO/WT: 0.06661

## LFHLPEYTWrLPCGGVR
MCF7 CARM1 KO cells; [15]
  CARM1 140-608/WT: 0.09104
  KO/WT: -2.175
MCF7 cells; [16]
  Fold change KO/WT: -2.1298

## GQLFrLPSALNR
MCF7 CARM1 KO cells; [1]
  CARM1 140-608/WT: -1.812
  KO/WT: -4.117
MCF7 cells; [8]
  Fold change KO/WT: -4.127

## VTrYPILGIPQAHR
MCF7 CARM1 KO cells; [5]
  CARM1 140-608/WT: -2.491
MCF7 CARM1 KO cells; [6]
  KO/WT: -2.966
MCF7 cells; [7]
  Fold change KO/WT: -1.789

## TYQASSAAFrYTAGTPYK
MCF7 CARM1 KO cells; [1]
  CARM1 140-608/WT: -4.171
  KO/WT: -4.425
MCF7 cells; [8]
  Fold change KO/WT: -4.425

## RAPVPVrGGPK
MCF7 CARM1 KO cells; [10]
  CARM1 140-608/WT: 0.3236
MCF7 CARM1 KO cells; [11]
  KO/WT: 1.039
MCF7 cells; [9]
  Fold change KO/WT: 0.8174

## SQAPArYSLQSANASSLSSGQLK
MCF7 CARM1 KO cells; [3]
  CARM1 140-608/WT: -3.491
MCF7 CARM1 KO cells; [4]
  KO/WT: -4.438
MCF7 cells; [2]
  Fold change KO/WT: -4.438

## CrQPAPPTSQPPrAQPFAQPPGPWPLSSPGPrLVFNR
MCF7 CARM1 KO cells; [1]
  CARM1 140-608/WT: -1.684
  KO/WT: -3.117
MCF7 cells; [8]
  Fold change KO/WT: -3.117

## TSGELGPFNNGASYPLQAGQPrLTK
MCF7 CARM1 KO cells; [5]
  CARM1 140-608/WT: -2.866
MCF7 CARM1 KO cells; [6]
  KO/WT: -4.63
MCF7 cells; [7]
  Fold change KO/WT: -4.512

## GrGALLQDICK
MCF7 CARM1 KO cells; [12]
  CARM1 140-608/WT: 0.1138
MCF7 CARM1 KO cells; [13]
  KO/WT: -0.96
MCF7 cells; [14]
  Fold change KO/WT: 0.3016

## ITVPrLSVGSVTSrPSTPTLGTPTPQTMSVSTK
MCF7 CARM1 KO cells; [15]
  CARM1 140-608/WT: -1.745
  KO/WT: -2.222
MCF7 cells; [16]
  Fold change KO/WT: -2.222

## NSCPGPLDSSAFLSSDFLLPEDPKPrLPPPPVPPPLLHYPPPAK
MCF7 CARM1 KO cells; [5]
  CARM1 140-608/WT: -1.41
MCF7 CARM1 KO cells; [6]
  KO/WT: -3.136
MCF7 cells; [7]
  Fold change KO/WT: -3.136

## INPLPGGrNFSGTASTSLLGPPPGLLTPPVATELSQNAR
MCF7 CARM1 KO cells; [3]
  CARM1 140-608/WT: -1.005
MCF7 CARM1 KO cells; [4]
  KO/WT: -2.627
MCF7 cells; [2]
  Fold change KO/WT: -2.627

## QLQLQQQrMQLAQK
MCF7 CARM1 KO cells
  CARM1 140-608/WT: -2.654
  KO/WT: -4.55
MCF7 cells; [9]
  Fold change KO/WT: -4.395

## GMYNQrYHCPVPK
MCF7 CARM1 KO cells
  CARM1 140-608/WT: -2.175
  KO/WT: -2.857
MCF7 cells; [16]
  Fold change KO/WT: -2.857

## GPrFEGNRPDGPrPrYEGHPAEGTK
MCF7 CARM1 KO cells; [12]
  CARM1 140-608/WT: -1.638
MCF7 CARM1 KO cells; [13]
  KO/WT: -2.637
MCF7 cells; [14]
  Fold change KO/WT: -2.637
